Data on 1 compound can be found in patent publication US10226534B2, “Semi-solid delivery systems” (REGENTS OF THE UNIVERSITY OF MINNESOTA, priority 2013, dated 2019).

The nature of this data set: Solubilization of Nile Red in water aided by the semi-solid polymer. It counts as physicochemical. Here is the method: Nile Red (NR) is a hydrophobic molecule that is insoluble in water. 3 mg of NR solid particles suspended in 1 mL of aqueous phosphate buffered saline (PBS) without dissolving. With addition of 10% semi-solid polymer (100 mg), NR is completely solubilized in PBS to 3 mg/mL.

The structures appear in SMILES notation. ≈ marks a conversion by molar mass, not a printed value.

`CCN(CC)c1ccc2nc3c4ccccc4c(=O)cc-3oc2c1` [Nile Red]: the solubility (usually the concentration that dissolves in the medium under given conditions) (PBS with 10% semi-solid polymer, aqueous with cosolvent or surfactant or cyclodextrin, thermodynamic from solid, with addition of 10% semi-solid polymer (100 mg in 1 mL PBS)) came out at 3000 µg/mL (≈ 9.42 mM). Moreover, under “without polymer”, the Solubility in water result was “insoluble”.
